# Test results as given in patent US11008317B2, “Triazolopyridine inhibitors of myeloperoxidase and/or EPX” (priority 2016, dated 2021).
# Structures can show the parent of a compound that is named as a salt.
# What was measured:
# myeloperoxidase [1] = target: T1, myeloperoxidase (Homo sapiens, UniProt P05164); experiment: MPO Peroxidation Assay (Amplex Red Assay); type: biochemical; settings: potency range class, read-out: Amplex Red Assay IC50 value
# T1 sequence (P05164 49-745): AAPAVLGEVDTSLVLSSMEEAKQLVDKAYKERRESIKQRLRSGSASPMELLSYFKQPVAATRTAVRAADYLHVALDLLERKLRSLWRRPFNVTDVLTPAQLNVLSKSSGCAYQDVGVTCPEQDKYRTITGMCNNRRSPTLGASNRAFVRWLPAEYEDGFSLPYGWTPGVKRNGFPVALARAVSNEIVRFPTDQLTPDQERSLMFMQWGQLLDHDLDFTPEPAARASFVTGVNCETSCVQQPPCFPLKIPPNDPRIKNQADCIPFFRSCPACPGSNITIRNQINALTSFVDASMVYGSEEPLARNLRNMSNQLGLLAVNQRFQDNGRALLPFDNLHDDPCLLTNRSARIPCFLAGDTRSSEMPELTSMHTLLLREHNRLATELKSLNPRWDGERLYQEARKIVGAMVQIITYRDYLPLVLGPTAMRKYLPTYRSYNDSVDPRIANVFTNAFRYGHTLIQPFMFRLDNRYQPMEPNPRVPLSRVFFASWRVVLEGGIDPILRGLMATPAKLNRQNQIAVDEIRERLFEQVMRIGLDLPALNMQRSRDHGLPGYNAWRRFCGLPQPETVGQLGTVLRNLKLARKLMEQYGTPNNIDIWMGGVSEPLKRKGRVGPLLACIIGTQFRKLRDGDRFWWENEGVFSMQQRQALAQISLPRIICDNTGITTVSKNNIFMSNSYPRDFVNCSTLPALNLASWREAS
# myeloperoxidase [2] = target: T1, myeloperoxidase; experiment: MPO Chlorination Assay (APF Assay); type: biochemical; settings: potency range class, read-out: APF Assay IC50 value
IC50 (myeloperoxidase [1]) [nM],IC50 (myeloperoxidase [2]) [nM],Compound
1000 to 10000,101 to 999,"Nc1cc(C(CCNC(Cc2ccccc2)c2ccccc2)c2ccccc2)c2nn[nH]c2n1 (stereo not shown) [Example 47, 7-{3-[(1,2-diphenylethyl)amino]-1-phenylpropyl}-3H-[1,2,3]triazolo[4,5-b]pyridin-5-amine]"
101 to 999,1 to 100,"Nc1cc([C@H](Cc2nc3c(-c4ccccc4)c(F)c(F)cc3[nH]2)c2ccccc2)c2nn[nH]c2n1 [Example 246, (R)-7-(2-(5,6-difluoro-4-phenyl-1H-benzo [d]imidazol-2-yl)-1-phenylethyl)-3H-[1,2,3]triazolo[4,5-b] pyridin-5-amine]"
1000 to 10000,1 to 100,"Nc1cc([C@H](Cc2nc3c(-c4ccc(Cl)cc4)cccc3[nH]2)c2ccccc2)c2nn[nH]c2n1 [Example 253, (R)-7-(2-(4-(4-chlorophenyl)-1H-benzo[d]imidazol-2-yl)-1-phenylethyl)-3H-[1,2,3]triazolo [4,5-b] pyridin-5-amine]"
101 to 999,1 to 100,Nc1cc([C@H](Cc2nc3ccc(-c4ccc(Cl)cc4)cc3[nH]2)c2ccccc2)c2nn[nH]c2n1 [Example 250]
101 to 999,1 to 100,"Nc1cc(C(CCNCc2ccccc2Oc2ccccc2)c2ccccc2)c2nn[nH]c2n1 (stereo not shown) [Example 74, 7-(3-{[(2-phenoxyphenyl)methyl]amino}-1-phenylpropyl)-3H-[1,2,3]triazolo[4,5-b]pyridin-5-amine]"
1000 to 10000,101 to 999,"Nc1cc(C(CCNC2CC3CCC(C2)C3c2ccccc2)c2ccccc2)c2nn[nH]c2n1 (stereo not shown) [Example 149, 7-[1-phenyl-3-({8-phenylbicyclo[3.2.1]octan-3-yl}amino)propyl]-3H-[1,2,3]triazolo[4,5-b] pyridin-5-amine]"
1000 to 10000,1 to 100,"Nc1cc([C@H](CCNC2CC[C@H](c3ccccc3)[C@@H](O)C2)c2ccccc2)c2nn[nH]c2n1 (stereo partly drawn) [Example 183, (1S,2R)-5-{[(3R)-3-{5-amino-3H-[1,2,3]triazolo [4,5-b]pyridin-7-yl}-3-phenylpropyl]amino}-2-phenylcyclohexan-1-ol]"
101 to 999,1 to 100,"Nc1cc(C(CCNC2CC[C@H](c3ccccc3)[C@@H](O)C2)c2ccccc2)c2nn[nH]c2n1 (stereo partly drawn) [Example 150, (1S,2R)-5-[(3-{5-amino-3H-[1,2,3]triazolo[4,5-b]pyridin-7-yl}-3-phenylpropyl)amino]-2-phenylcyclohexan-1-ol]"
101 to 999,101 to 999,"Nc1cc([C@H](CCCN2CCC(c3cccc(C(F)(F)F)c3)C(O)C2)c2ccccc2)c2nn[nH]c2n1 (stereo partly drawn) [Example 220, 1-[(4R)-4-{5-amino-3H-[1,2,3]triazolo [4,5-b]pyridin-7-yl}-4-phenylbutyl]-4-[3-(trifluoromethyl)phenyl]piperidin-3-ol]"
101 to 999,1 to 100,"NC(=O)c1ccc(C2CCC(NCCC(c3ccccc3)c3cc(N)nc4[nH]nnc34)CC2)cc1 (stereo not shown) [Example 117, 4-{4-[(3-{5-amino-3H-[1,2,3]triazolo [4,5-b]pyridin-7-yl}-3-phenylpropyl)amino]cyclohexyl} benzamide]"
101 to 999,101 to 999,"Nc1cc(C(CCNC(Cc2ccccc2)c2ccccc2)c2ccccc2)c2nn[nH]c2n1 (stereo not shown) [Example 45, 7-{3-[(1,2-diphenylethyl)amino]-1-phenylpropyl}-3H-[1,2,3]triazolo[4,5-b] pyridin-5-amine]"
101 to 999,101 to 999,"Nc1cc(C(CCNC2CCC(c3ccc(F)cc3)CC2)c2ccccc2)c2nn[nH]c2n1 (stereo not shown) [Example 112, 7-(3-{[4-(4-fluorophenyl)cyclohexyl]amino}-1-phenylpropyl)-3H-[1,2,3]triazolo [4,5-b]pyridin-5-amine]"
101 to 999,101 to 999,"CC(NCCC(c1ccccc1)c1cc(N)nc2[nH]nnc12)c1ccccc1 (single isomer, unassigned) [Example 12, 7-(1-phenyl-3-((1-phenylethyl)amino)propyl)-3H-[1,2,3]triazolo[4,5-b]pyridin-5-amine]"
1000 to 10000,1 to 100,"Nc1cc(C(CCNC2CCC(Cc3ccccc3)CC2)c2ccccc2)c2nn[nH]c2n1 (stereo not shown) [Example 129, 7-{3-[(4-benzylcyclohexyl)amino]-1-phenylpropyl}-3H-[1,2,3]triazolo[4,5-b]pyridin-5-amine]"
101 to 999,101 to 999,"Nc1cc([C@H](CCO)c2ccccc2)c2nn[nH]c2n1 [Example 237, (R)-3-(5-amino-3H-[1,2,3]triazolo[4,5-b]pyridin-7-yl)-3-phenylpropan-1-ol]"
101 to 999,101 to 999,"Nc1cc(C(CC(O)CCc2ccccc2)c2ccccc2)c2nn[nH]c2n1 (stereo not shown) [Example 225, 1-(5-amino-3H-[1,2,3]triazolo[4,5-b]pyridin-7-yl)-1,5-diphenylpentan-3-ol, TFA]"
101 to 999,1 to 100,"CC1C[C@H](NCCC(c2ccccc2)c2cc(N)nc3[nH]nnc23)c2ccccc21 (stereo partly drawn) [Example 99, 7-(3-{[(1S)-3-methyl-2,3-dihydro-1H-inden-1-yl]amino}-1-phenylpropyl)-3H-[1,2,3]triazolo[4,5-b] pyridin-5-amine]"
1000 to 10000,101 to 999,"Nc1cc(C(CCN[C@H]2CC[C@H](n3cncn3)CC2)c2ccccc2)c2nn[nH]c2n1 (stereo partly drawn) [Example 146, 7-(1-phenyl-3-{[(trans)-4-(1H-1,2,4-triazol-1-yl)cyclohexyl]amino}propyl)-3H-[1,2,3] triazolo[4,5-b] pyridin-5-amine]"
101 to 999,1 to 100,"N#Cc1cccc(C(CCNC2CCC(c3ccccc3)CC2)c2cc(N)nc3[nH]nnc23)c1 (stereo not shown) [Example 155, 3-(1-{5-amino-3H-[1,2,3]triazolo [4,5-b]pyridin-7-yl}-3-[(4-phenylcyclohexyl)amino]propyl)benzonitrile]"
101 to 999,101 to 999,"Nc1cc(C(CCNCC2CCCCC2)c2ccccc2)c2nn[nH]c2n1 (stereo not shown) [Example 23, 7-{3-[(cyclohexylmethyl)amino]-1-phenylpropyl}-3H-[1,2,3]triazolo[4,5-b] pyridin-5-amine]"
101 to 999,101 to 999,"Nc1cc(C(CCNCC23CC4CC(CC(C4)C2)C3)c2ccccc2)c2nn[nH]c2n1 (stereo not shown) [Example 22, 7-(3-{[(adamantan-1-yl)methyl]amino}-1-phenylpropyl)-3H-[1,2,3]triazolo[4,5-b] pyridin-5-amine]"
101 to 999,1 to 100,"Nc1cc(C(CCN[C@H]2CC[C@H](c3ccncc3)CC2)c2ccccc2)c2nn[nH]c2n1 (stereo partly drawn) [Example 139, 7-(1-phenyl-3-{[(trans)-4-(pyridin-4-yl)cyclohexyl]amino}propyl)-3H-[1,2,3] triazolo[4,5-b] pyridin-5-amine]"
101 to 999,1 to 100,"Nc1cc(C(CCNC2CCc3ccccc3C2)c2ccccc2)c2nn[nH]c2n1 (stereo not shown) [Example 188, 7-{1-phenyl-3-[(1,2,3,4-tetrahydronaphthalen-2-yl)amino]propyl}-3H-[1,2,3]triazolo [4,5-b]pyridin-5-amine]"
101 to 999,1 to 100,"Nc1cc([C@H](CCCN2CCC(c3ccc4ccccc4c3)CC2)c2ccccc2)c2nn[nH]c2n1 [Example 218, 7-[(1R)-4-[4-(naphthalen-2-yl)piperidin-1-yl]-1-phenylbutyl]-3H-[1,2,3]triazolo[4,5-b] pyridin-5-amine]"
1000 to 10000,101 to 999,"COc1ccncc1[C@H]1CC[C@H](NCCC(c2ccccc2)c2cc(N)nc3[nH]nnc23)CC1 (stereo partly drawn) [Example 137, 7-(1-phenyl-3-{[(trans)-4-(4-methoxypyridin-3-yl)cyclohexyl]amino}propyl)-3H-[1,2,3]triazolo [4,5-b]pyridin-5-amine]"
1 to 100,101 to 999,"CC(c1cccc(F)c1)c1cc(N)nc2[nH]nnc12 (racemic) [Example 30, 7-(1-(3-fluorophenyl)ethyl)-3H-[1,2,3]triazolo[4,5-b]pyridin-5-amine]"
101 to 999,1 to 100,"CCCCC12CCC(NCCC(c3ccccc3)c3cc(N)nc4[nH]nnc34)(CC1)CC2 (stereo not shown) [Example 130, 7-[3-({4-butylbicyclo [2.2.2]octan-1-yl}amino)-1-phenylpropyl]-3H-[1,2,3]triazolo[4,5-b]pyridin-5-amine]"
101 to 999,1 to 100,"Nc1cc([C@H](Cc2nc3c(-c4cccc(Cl)c4)cccc3[nH]2)c2ccccc2)c2nn[nH]c2n1 [Example 247, (R)-7-(2-(4-(3-chlorophenyl)-1H-benzo[d]imidazol-2-yl)-1-phenylethyl)-3H-[1,2,3]triazolo [4,5-b]pyridin-5-amine]"
1000 to 10000,1 to 100,"N#Cc1cc(-c2ccccc2)c2nc(C[C@H](c3ccccc3)c3cc(N)nc4[nH]nnc34)[nH]c2c1 [Example 254, (R)-2-(2-(5-amino-3H-[1,2,3]triazolo [4,5-b]pyridin-7-yl)-2-phenylethyl)-4-phenyl-1H-benzo[d]imidazole-6-carbonitrile]"
